Reference: the METLIN SMRT retention time set (Domingo-Almenara et al. 2019)

test: gradient 5% acetonitrile 3 min, to 50% in 2 min, to 85% in 15 min, held 3 min, 100 µL/min; details: column: Zorbax Extend-C18 2.1 x 50 mm; eluents: water / acetonitrile, 0.1% formic acid
Method in brief: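 Pure standards were run in mixtures of ~100 molecules by HPLC coupled to a quadrupole time-of-flight mass spectrometer. The column was a Zorbax Extend-C18 (2.1 × 50 mm, 1.8 μm) at 100 μL/min, with water and acetonitrile each containing 0.1% formic acid, in positive and negative ionization mode. Dead and dwell volumes were 40 μL and 900 μL. Retention time was taken from computationally picked adduct peaks, each manually inspected, with data collected over 3 months.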

SMILES	RP-LC retention time
O=C(Nc1nccs1)C1CCN(C(=O)c2cnn(-c3ccccc3)n2)CC1	743 s
c1ccc(Nc2nc(-c3ccc4c(c3)OCO4)cs2)nc1	849 s
O=C(NCc1ccccc1)NCC1Cn2cccc2C(=O)N1Cc1ccccc1 (stereo not given)	782 s
Cc1nc(-c2ccc(-c3noc(C(C)Oc4ccccc4)n3)cc2)cs1 (stereo not given)	1210 s
c1ccc(OCCC2CCN(Cc3ccc4[nH]ccc4c3)C2)cc1 (stereo not given)	726 s
CN(CC1CCOCC1)C(=O)Nc1ccc(Cl)cc1	772 s
Cn1c(=O)c2nc(SCCC(=O)Nc3ccc(Br)cc3F)n(C)c2n(C)c1=O	806 s
CNC(=O)c1cc(N2CCOCC2)nc2ccc(F)cc12	590 s
CS(=O)(=O)N(C1CCOCC1)C1CN(C(=O)c2cc3ccccc3[nH]2)C1	685 s
COC(=O)C1=CN(C2CC2)c2cc(N3CCN(c4ccccn4)CC3)c(F)cc2S1(=O)=O	637 s
Cc1nc2cc3c(cc2n1CC(=O)NC(C)c1ccc2c(c1)OCCCO2)OCCO3 (stereo not given)	634 s
COCCOC1CCN(C(=O)Nc2ccc3c(c2)OCCO3)CC1	668 s
O=S(=O)(c1cc(-c2cc(C(F)(F)F)on2)cs1)N1CCN(C2CCCCC2)CC1	775 s
Cc1noc(C2CN(C(=O)Nc3c(C)cccc3C)CC23CCOCC3)n1 (stereo not given)	693 s
Cc1noc(C2CN(C(=O)CCC(C)C)CC23CCOCC3)n1 (stereo not given)	678 s
CC(=O)SCc1nc(SCC(=O)Nc2ccccc2C)n[nH]1	623 s
CN(C)CC1CN(C(=O)c2ccc3c(c2)OCO3)CC12CCOCC2 (stereo not given)	562 s
COC(=O)C1=CN(c2cc(F)ccc2C)c2cc(F)ccc2S1(=O)=O	842 s
O=C(NC1CCCc2c1[nH]c1ccc(F)cc21)c1ccncc1 (stereo not given)	774 s
CC(C)(C)C(O)CCNC(=O)NCc1ccc(F)cc1 (stereo not given)	705 s
CCc1cccc(N(C)C(N)=Nc2cccc3ccccc23)c1	846 s
CCCN(CCC)c1nc(-c2ccc(Cl)cc2)nc2ccccc12	961 s
CCCN1C(=O)C(CC(=O)N2CCN(C)CC2)Sc2ncccc21 (stereo not given)	576 s
COc1ccccc1-n1ccn2cc(-c3cccc(Cl)c3)nc2c1=O	873 s
COC(=O)C1=C(C)NC(SCC(=O)NC2CCCCC2)=C(C#N)C1c1ccccc1F (stereo not given)	1020 s
CC(=O)c1ccc(NC(=O)Cn2cnc3nc4c(cc3c2=O)CCCC4)cc1	671 s

SMILES	RP-LC retention time
CCCN1C(=O)COc2ccc(-c3noc(-c4ccc(C(F)(F)F)cc4)n3)cc21	1050 s
CC(C)NC(=O)c1ccc(OCC2CCCN2C(=O)c2cccs2)cc1 (stereo not given)	818 s
O=C(CSCc1ccccc1)Nc1ccccc1Cl	978 s
O=C(c1ccccc1)N1CCc2sc(C(=O)N3CCN(c4ccccn4)CC3)cc2C1	608 s
Cc1c(Cl)cccc1NC(=O)NC1CCN(c2cc(N3CCCC3)cnn2)C1 (stereo not given)	668 s
CCN1c2cc(F)ccc2C(=O)NC12CCN(C(=O)c1cccc(C)c1)CC2	824 s
CCc1nc(-c2cccc(-c3noc(CN4C(=O)COc5ccc(Cl)cc54)n3)c2)cs1	1240 s
COc1cccc(-c2cc3c(=O)n(Cc4nc(-c5ccc(Cl)cc5)no4)ccn3n2)c1	1120 s
COCc1nc(CCNS(=O)(=O)c2ccc(F)cc2)no1	731 s
CCc1csc(-c2cn(CC(=O)Nc3ccc(OC)c(Cl)c3)cn2)n1	727 s
COc1ccc(Br)cc1C1C(C(=O)N2CCOCC2)=C(C)NC2=C1C(=O)CC(C)(C)C2 (stereo not given)	683 s
Cc1cc(=O)n(CC(=O)Nc2ccc3c(c2)OCO3)c(N2CCOCC2)n1	644 s
CC(C)CN1C(=O)c2ccccc2C(C(=O)NCCN2CCN(C)CC2)C1c1cccs1 (stereo not given)	617 s
COCCc1noc(C2CN(C(=O)Cn3ccnc3)C2)n1	580 s
Cc1cc(Cl)ccc1OCC(=O)NCC1CCOCC1	828 s
CCC1(C(=O)Nc2ccc(OC)c(F)c2)CCCCC(=O)N1 (stereo not given)	720 s
CCn1cc(CCNS(=O)(=O)Cc2ccc(F)cc2Cl)c2cccnc21	812 s
Cn1cnc(S(=O)(=O)N2CCC(c3noc(-c4ccncc4)n3)C2)c1 (stereo not given)	628 s
CNc1nc(NCc2ccc(NC(=O)c3ccc(F)cc3)cc2)c2ccccc2n1	692 s
CCCc1cc(N2CCN(C(=O)c3cccc(C#N)c3)CC2)nc2nncn12	604 s
COc1ccc(CCNCc2ccc3c(c2)n(C)c(=O)n3C)cc1OC	587 s
CC1(CNS(=O)(=O)c2ccc(F)c(F)c2)CCOCC1	810 s
Cc1ccc(NC(=O)C2CCCN2S(=O)(=O)c2cc3c(cc2C)NC(=O)CO3)cc1F (stereo not given)	808 s
CC1CCCCN1CCCNC(=O)Cn1c2ccccc2c2cnn(C)c(=O)c21 (stereo not given)	600 s
Cc1cc(C)cc(NC(=O)N2CCC(CN3CCCC(C)C3)CC2)c1 (stereo not given)	648 s
COc1ccc(Cl)cc1NC(=O)c1c(C)oc2c1C1=NCCN1C=N2	674 s

Second part, the compound after the results:

RP-LC retention time	SMILES
700 s	CCC(C)C(NC(=O)c1ccc(OC)cc1)C(=O)Nc1nc2ccccc2[nH]1 (stereo not given)
573 s	COc1nn(C)cc1C(=O)NCc1n[nH]c(=O)c2ccccc12
944 s	O=C(Nc1ccc(C2(C(=O)N3CCN(c4ccccc4F)CC3)CCC2)cc1)C1CC1
836 s	Cn1nc(-c2ccccc2)cc1C(=O)NCCn1nc(-c2ccc(Cl)cc2)ccc1=O
977 s	Cc1ccccc1CNC(=O)C1(C)CCCN(C(=O)Nc2cccc(C)c2C)C1 (stereo not given)
630 s	COc1cccc(CNC(=O)Cn2nc3c4cccc(C)c4ncn3c2=O)c1OC
752 s	CCOCC(=O)N1CCCN(C2=NS(=O)(=O)C(c3ccc(C)cc3)=C2C)CC1
844 s	O=C1COc2cc(S(=O)(=O)N3CCC(C(=O)N4CCc5ccccc54)CC3)c(Cl)cc2N1
911 s	COc1ccccc1CNC(=O)c1nnc(-c2ccc(S(=O)(=O)N3CCCCC3)cc2)o1
633 s	COc1ccc(NC(=O)NCCc2cn(C)c3ncccc23)cc1
1060 s	CC(C)c1ccc(NC(=O)Cn2cccc2-c2nnc(C3CCC3)o2)cc1
997 s	O=C(Nc1ccccc1)N1CCc2nc(-c3ccc(Cl)cc3)ncc2C1
827 s	COC(=O)c1nc(NC(=O)Cn2nc3c(cc2=O)CCCC3)sc1-c1ccccc1
1180 s	COc1ccc(OCC(=O)Nc2ccc(-c3nc(-c4ccc(OC)cc4)no3)cc2)cc1
1090 s	CCc1cccc(NC(=O)CSc2cc(N3CCN(c4ccccc4OC)CC3)ncn2)c1
1060 s	CCc1nc(-c2csc(S(=O)(=O)N3CCCC(C(=O)N(C)c4ccc(C)cc4)C3)c2)no1 (stereo not given)
807 s	CCn1cnc2ccc(-c3noc(COc4ccccc4C)n3)cc21
583 s	N#Cc1ccc(C(=O)Nc2cccnc2N2CCCC2)cc1
748 s	CCn1cnc(S(=O)(=O)N2CCC(C(=O)Nc3nc4ccc(OC)cc4s3)CC2)c1

RP-LC retention time	SMILES
894 s	CC(=O)Nc1ccc(NC(=O)C2CCCN(c3nccnc3Sc3ccc(C)cc3)C2)cc1 (stereo not given)
680 s	O=C(CCn1ccc2cc(S(=O)(=O)N3CCCCC3)ccc21)N1CCN(c2ccccn2)CC1
1170 s	CCOc1ccccc1-c1nc(Cc2noc(-c3ccccc3)n2)c(C)o1
761 s	CCc1ccc(C2=C(C)C(N3CCCN(C(=O)NCCCOC)CC3)=NS2(=O)=O)cc1
841 s	CCc1noc(NC(C)=O)c1-c1ccc(OC)c(S(=O)(=O)Nc2ccc(Cl)cc2C)c1
797 s	COc1ccc(C(=O)N2CCC(n3nc(-c4ccsc4)ccc3=O)CC2)cc1
658 s	CCNC(=O)C1CCN(C(=O)Nc2ccc(NC(=O)Nc3ccccc3)cc2)CC1
818 s	Cc1cccc(NC(=O)C2CCN(S(=O)(=O)c3ccc4c(c3)NC(=O)C(C)O4)CC2)c1C (stereo not given)
1090 s	N#Cc1ccc(NS(=O)(=O)c2cccc(-c3nc(-c4ccccc4)no3)c2)cc1
848 s	O=C(CN1C(=O)CCCc2cc(S(=O)(=O)N3CCCC3)ccc21)NC1CCCCCC1
715 s	c1ccc(-c2nnc(-c3ccncc3)o2)cc1
800 s	COc1ccc(S(=O)(=O)NC2CCN(c3ccc(=O)n(CC4CC4)n3)C2)cc1Cl (stereo not given)
837 s	Cc1cc2c(cc1CNC(=O)Cn1cc(C(=O)c3ccco3)c3ccccc31)OCCCO2
598 s	Cc1nnc(-c2ccc3ccn(CC(=O)N4CCN(c5ccccn5)CC4)c3c2)o1
1170 s	COc1nc2ccccc2nc1N1CCCC(C(=O)Nc2cc(F)cc(F)c2)C1 (stereo not given)
622 s	C=CCNC(=O)c1nnc2n(c1=O)CCN2c1ccc(F)cc1
722 s	COC(=O)c1ccccc1C(=O)N(Cc1cccnc1)c1nc2ccc(F)cc2s1
1040 s	CN(Cc1ccccc1)C(=O)c1nnc(-c2ccc(S(=O)(=O)N3CCCCC3)cc2)o1
783 s	O=C(NCc1ccco1)C1CCN(Cc2cc3ccccc3n2Cc2ccc(Cl)cc2)CC1
